This assay concerns the target interaction between p53 and MDM2 proteins (Homo sapiens, UniProt Q00987). Nature of the assay: HTRF assay of inhibition of the interaction between p53 and MDM2 proteins (GST-MDM2 / biotinylated p53 peptide). To be noted: recombinant GST-tagged MDM2, biotinylated p53 peptide, 37° C. for 1 h. Type of assay: binding. The method, then:
[…], the ability of the compounds to inhibit the interaction between p53 and MDM2 proteins was measured.
The ability of the compounds to inhibit the interaction between p53 and MDM2 proteins was measured by an HTRF (homogeneous time-resolved fluorescence) assay in which recombinant GST-tagged MDM2 binds to a peptide that resembles the MDM2-interacting region of p53 (Lane et al.). Binding of GST-MDM2 protein and p53-peptide (biotinylated on its N-terminal end) is registered by the FRET (fluorescence resonance energy transfer) between Europium (Eu)-labeled anti-GST antibody and streptavidin-conjugated Allophycocyanin (APC).
Test is performed in black flat-bottom 384-well plates (Costar) in a total volume of 40 uL containing: 90 nM biotinylate peptide, 160 ng/ml GST-MDM2, 20 nM streptavidin-APC (PerkinElmerWallac), 2 nM Eu-labeled anti-GST-antibody (PerkinElmerWallac), 0.2% bovine serum albumin (BSA), 1 mM dithiothreitol (DTT) and 20 mM Tris-borate saline (TBS) buffer as follows: Add 10 uL of GST-MDM2 (640 ng/ml working solution) in reaction buffer to each well. Add 10 uL diluted compounds (1:5 dilution in reaction buffer) to each well, mix by shaking. Add 20 uL biotinylated p53 peptide (180 nM working solution) in reaction buffer to each well and mix on shaker. Incubate at 37° C. for 1 h. Add 20 uL streptavidin-APC and Eu-anti-GST antibody mixture (6 nM Eu-anti-GST and 60 nM streptavidin-APC working solution) in TBS buffer with 0.2% BSA, shake at room temperature for 30 minutes and read using a TRF-capable plate reader at 665 and 615 nm (Victor 5, Perkin ElmerWallac). If not specified, the reagents were purchased from Sigma Chemical Co.
On the technique in general: In TR-FRET formats the signal depends on donor and acceptor labels being close together.
interaction between p53 and MDM2 proteins, sequence (Q00987 whole entry): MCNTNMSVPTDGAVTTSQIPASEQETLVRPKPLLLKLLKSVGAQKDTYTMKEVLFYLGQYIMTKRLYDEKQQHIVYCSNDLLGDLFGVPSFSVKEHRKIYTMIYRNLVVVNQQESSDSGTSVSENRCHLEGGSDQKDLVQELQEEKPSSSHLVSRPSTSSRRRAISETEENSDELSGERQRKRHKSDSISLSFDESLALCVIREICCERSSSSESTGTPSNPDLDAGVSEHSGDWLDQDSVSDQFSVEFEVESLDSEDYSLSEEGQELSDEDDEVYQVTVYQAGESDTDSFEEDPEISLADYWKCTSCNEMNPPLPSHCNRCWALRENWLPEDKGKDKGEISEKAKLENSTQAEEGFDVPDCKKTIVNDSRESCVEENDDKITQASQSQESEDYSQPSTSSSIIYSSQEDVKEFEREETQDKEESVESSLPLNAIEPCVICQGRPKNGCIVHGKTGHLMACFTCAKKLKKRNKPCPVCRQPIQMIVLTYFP
Consider `O=C1Nc2cc(Cl)ccc2C1(Cc1ccccc1)C1CCCC1` (racemic) [Example 3C, rac-3-Benzyl-6-chloro-3-cyclopentyl-1,3-dihydro-indol-2-one], for which the IC50 (commonly the midpoint of a concentration-inhibition curve) was found to be 5380 nM.

Take `COc1cccc([C@]2(Cc3cccc(Cl)c3)C(=O)Nc3cc(Cl)ccc32)c1` (single isomer, unassigned) [Example 13]: the IC50 is 280 nM. Under `COc1cccc(C2(Cc3cccc(Cl)c3)C(=O)Nc3cc(Cl)ccc32)c1` (racemic) [Example 9, rac-6-Chloro-3-(3-chloro-benzyl)-3-(3-methoxy-phenyl)-1,3-dihydro-indol-2-one] stands 460 nM; under `COc1cccc(C2(Cc3ccccc3)C(=O)Nc3cc(Cl)ccc32)c1` (racemic) [Example 6C, rac-3-Benzyl-6-chloro-3-(3-methoxy-phenyl)-1,3-dihydro-indol-2-one], 9490 nM.

These data come from US7576082B2, “Oxindole derivatives” (Hoffman-La Roche Inc., priority 2005, dated 2009).
